Test results from patent US20070275368A1, “Posh Associated Kinases And Related Methods” (PROTEOLOGICS, LTD., priority 2003, published 2007).

What was measured:
[1] = tested on: HIV-1; conditions: H89 50 μM, HeLa SS6 cells transfected with pNLenv-1, 20 minutes after shift to 37° C.
Description: HeLa SS6 cells were transfected with pNLenv-1PTAP or pNLenv-1ATAA (L-domain mutant). Eighteen hours post-transfection, cells were transferred to 20° C. for two hours in order to inhibit transport of viral particles from the trans-Golgi (TGN) to the plasma membrane (PM). Subsequently, the PKA inhibitor, H89 (50 μM) (Biosource, Cat. No. PHZ1114) or DMSO were added to the cells and dishes were transferred to 37° C. to initiate transport from the TGN to the PM. Reverse transcriptase activity was assayed from virus-like-particles collected from cell supernatant twenty minutes later.
For transfections, HeLa SS6 cells were grown to 100% confluency in DMEM containing 10% FCS without antibiotics. Cells were then transfected with HIV-1NLenv1 (2 μg per 6-well) (Schubert et al., 1995).
Virus and virus-like particle (VLP) release by reverse transcriptase activity was determined one day after transfection with the pro-viral DNA as previously described (Adachi et al., 1986; Fukumori et al., 2000; Lenardo et al., 2002). The culture medium of virus-expressing cells was collected and centrifuged at 500×g for 10 minutes. The resulting supernatant was passed through a 0.45 μm-pore filter and the filtrate was centrifuged at 14,000×g for 2 hours at 4° C. […]

[2] = tested on: HIV-1; conditions: Cartier et al., 2003; cited from earlier work
[3] = tested on: T1, Bacterially expressed recombinant maltose-binding-protein (MBP)-hPOSH
T1 sequence: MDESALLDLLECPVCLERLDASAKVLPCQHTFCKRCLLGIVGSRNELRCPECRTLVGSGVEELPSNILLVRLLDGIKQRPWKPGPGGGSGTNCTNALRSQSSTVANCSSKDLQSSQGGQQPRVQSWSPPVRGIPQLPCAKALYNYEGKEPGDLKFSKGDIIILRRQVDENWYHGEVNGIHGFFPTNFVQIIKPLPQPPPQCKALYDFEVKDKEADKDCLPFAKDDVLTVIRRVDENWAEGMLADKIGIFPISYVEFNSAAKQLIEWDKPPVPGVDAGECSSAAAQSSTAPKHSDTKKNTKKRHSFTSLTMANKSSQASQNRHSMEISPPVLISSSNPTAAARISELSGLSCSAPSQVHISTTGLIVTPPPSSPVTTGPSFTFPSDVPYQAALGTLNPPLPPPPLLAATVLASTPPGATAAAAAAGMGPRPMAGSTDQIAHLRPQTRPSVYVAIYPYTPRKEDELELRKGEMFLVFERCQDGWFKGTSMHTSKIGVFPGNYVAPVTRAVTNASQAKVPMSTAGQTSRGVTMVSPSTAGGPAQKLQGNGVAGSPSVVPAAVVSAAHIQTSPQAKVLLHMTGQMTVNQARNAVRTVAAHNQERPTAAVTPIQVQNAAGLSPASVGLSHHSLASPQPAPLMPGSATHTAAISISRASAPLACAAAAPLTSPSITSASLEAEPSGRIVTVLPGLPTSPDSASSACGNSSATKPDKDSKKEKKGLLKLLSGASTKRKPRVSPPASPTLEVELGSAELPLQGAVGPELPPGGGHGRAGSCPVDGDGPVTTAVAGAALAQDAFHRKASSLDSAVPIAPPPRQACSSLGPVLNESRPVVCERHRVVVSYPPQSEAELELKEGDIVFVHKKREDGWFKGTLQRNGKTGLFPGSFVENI

Compound | inhibition of RT activity of virus-like-particles collected from cell supernatant [1] | block of HIV-1 release from cells [2] | phosphorylation of hPOSH (immunoblot with PKA-substrate phospho-specific antibody) [3]
O=S(=O)(NCCNCC=Cc1ccc(Br)cc1)c1cccc2cnccc12 [H89, N-[2-((Pbromocinnamyl)amino)ethyl]isoquinolinesulfonamide] | complete inhibition | able to block HIV-1 release from cells | 
PKA catalytic subunit (PKAc) |  |  | POSH is phosphorylated by PKA
